Data as given in ChEMBL document CHEMBL3045618, “Effect of seven new orchard pesticides on Galendromus occidentalis in laboratory studies” (2009).

What was measured:
Galendromus occidentalis [1] = assay: Toxicity against Metaseiulus occidentalis adults in bean leaf disk infested with two-spotted spider mites assessed as repellency at 0.1167 g AI/L treated using worst-case laboratory exposure procedure measured after 72 hr (reference value: 16.1%); format: functional
Galendromus occidentalis [2] = assay: Toxicity against Metaseiulus occidentalis adults in bean leaf disk infested with two-spotted spider mites assessed as repellency at 0.1167 g AI/L treated using worst-case laboratory exposure procedure measured after 48 hr (reference value: 13.6%); format: functional
Galendromus occidentalis [3] = assay: Toxicity against Metaseiulus occidentalis adults in bean leaf disk infested with two-spotted spider mites assessed as repellency at 0.1167 g AI/L treated using worst-case laboratory exposure procedure measured after 24 hr (reference value: 3.6%); format: functional
Galendromus occidentalis [4] = assay: Toxicity against Metaseiulus occidentalis adults in bean leaf disk infested with two-spotted spider mites assessed as average number of eggs laid (fecundity)at 0.1167 g AI/L treated using worst-case laboratory exposure procedure measured after 72 hr (reference value: 2.23/day); format: functional
Galendromus occidentalis [5] = assay: Toxicity against Metaseiulus occidentalis adults in bean leaf disk infested with two-spotted spider mites assessed as corrected mortality at 0.1167 g AI/L treated using worst-case laboratory exposure procedure measured after 72 hr; format: functional
Galendromus occidentalis [6] = assay: Toxicity against Metaseiulus occidentalis adults in bean leaf disk infested with two-spotted spider mites assessed as corrected mortality at 2x0.1167 g AI/L treated using worst-case laboratory exposure procedure measured after 72 hr; format: functional
Galendromus occidentalis [7] = assay: Toxicity against Metaseiulus occidentalis adults in bean leaf disk infested with two-spotted spider mites assessed as average number of eggs laid (fecundity) at 0.1167 g AI/L treated using worst-case laboratory exposure procedure measured after 48 hr (reference value: 2.30/day); format: functional
Galendromus occidentalis [8] = assay: Toxicity against Metaseiulus occidentalis adults in bean leaf disk infested with two-spotted spider mites assessed as average number of eggs laid (fecundity) at 0.1167 g AI/L treated using worst-case laboratory exposure procedure measured after 24 hr (reference value: 2.11/day); format: functional
Galendromus occidentalis [9] = assay: Toxicity against Metaseiulus occidentalis adults in bean leaf disk infested with two-spotted spider mites assessed as corrected mortality at 0.1167/128 g AI/L treated using worst-case laboratory exposure procedure measured after 72 hr; format: functional
Galendromus occidentalis [10] = assay: Toxicity against Metaseiulus occidentalis adults in bean leaf disk infested with two-spotted spider mites assessed as corrected mortality at 0.1167/46 g AI/L treated using worst-case laboratory exposure procedure measured after 72 hr; format: functional
Galendromus occidentalis [11] = assay: Toxicity against Metaseiulus occidentalis adults in bean leaf disk infested with two-spotted spider mites assessed as corrected mortality at 0.1167/8 g AI/L treated using worst-case laboratory exposure procedure measured after 72 hr; format: functional
Galendromus occidentalis [12] = assay: Toxicity against Metaseiulus occidentalis adults in bean leaf disk infested with two-spotted spider mites assessed as corrected mortality at 4x0.1167 g AI/L treated using worst-case laboratory exposure procedure measured after 72 hr; format: functional
Galendromus occidentalis [13] = assay: Toxicity against Metaseiulus occidentalis adults in bean leaf disk infested with two-spotted spider mites assessed as mortality treated using worst-case laboratory exposure procedure measured after 72 hr; format: functional
Galendromus occidentalis [14] = assay: Ovicidal activity against Metaseiulus occidentalis eggs in bean leaf disk infested with two-spotted spider mites assessed as corrected cumulative mortality at 700 g/kg WP formulation treated using worst-case laboratory exposure procedure measured after 144 hr (reference value: 0.7%); format: functional
Amblyseius andersoni = assay: Toxicity against Amblyseius andersoni in hop fields assessed as mortality; format: functional
Galendromus occidentalis [15] = assay: Toxicity against Metaseiulus occidentalis adults in bean leaf disk infested with two-spotted spider mites assessed as repellency at 0.1600 g AI/L treated using worst-case laboratory exposure procedure measured after 72 hr (reference value: 16.1%); format: functional
Galendromus occidentalis [16] = assay: Toxicity against Metaseiulus occidentalis adults in bean leaf disk infested with two-spotted spider mites assessed as repellency at 0.1600 g AI/L treated using worst-case laboratory exposure procedure measured after 48 hr (reference value: 13.6%); format: functional
Galendromus occidentalis [17] = assay: Toxicity against Metaseiulus occidentalis in hop fields assessed as mortality; format: functional
Neoseiulus fallacis = assay: Toxicity against Neoseiulus fallacis in hop fields assessed as mortality; format: functional, Garman
Galendromus occidentalis [18] = assay: Toxicity against Metaseiulus occidentalis adults in bean leaf disk infested with two-spotted spider mites assessed as repellency at 0.1600 g AI/L treated using worst-case laboratory exposure procedure measured after 24 hr (reference value: 3.6%); format: functional
Galendromus occidentalis [19] = assay: Toxicity against Metaseiulus occidentalis adults in bean leaf disk infested with two-spotted spider mites assessed as average number of eggs laid (fecundity) at 0.1600 g AI/L treated using worst-case laboratory exposure procedure measured after 72 hr (reference value: 2.23/day); format: functional
Galendromus occidentalis [20] = assay: Toxicity against Metaseiulus occidentalis adults in bean leaf disk infested with two-spotted spider mites assessed as corrected mortality at 0.1600/8 g AI/L treated using worst-case laboratory exposure procedure measured after 72 hr; format: functional
Galendromus occidentalis [21] = assay: Toxicity against Metaseiulus occidentalis adults in bean leaf disk infested with two-spotted spider mites assessed as corrected mortality at 0.1600/2 g AI/L treated using worst-case laboratory exposure procedure measured after 72 hr; format: functional
Galendromus occidentalis [22] = assay: Toxicity against Metaseiulus occidentalis adults in bean leaf disk infested with two-spotted spider mites assessed as corrected mortality at 0.1600 g AI/L treated using worst-case laboratory exposure procedure measured after 72 hr; format: functional
Galendromus occidentalis [23] = assay: Toxicity against Metaseiulus occidentalis adults in bean leaf disk infested with two-spotted spider mites assessed as average number of eggs laid (fecundity) at 0.1600 g AI/L treated using worst-case laboratory exposure procedure measured after 48 hr (reference value: 2.30/day); format: functional
Galendromus occidentalis [24] = assay: Toxicity against Metaseiulus occidentalis adults in bean leaf disk infested with two-spotted spider mites assessed as average number of eggs laid (fecundity) at 0.1600 g AI/L treated using worst-case laboratory exposure procedure measured after 24 hr (reference value: 2.11/day); format: functional
Galendromus occidentalis [25] = assay: Toxicity against Metaseiulus occidentalis adults in bean leaf disk infested with two-spotted spider mites assessed as corrected mortality at 0.1600/32 g AI/L treated using worst-case laboratory exposure procedure measured after 72 hr; format: functional
Galendromus occidentalis [26] = assay: Toxicity against Metaseiulus occidentalis adults in bean leaf disk infested with two-spotted spider mites assessed as corrected mortality at 0.1600/16 g AI/L treated using worst-case laboratory exposure procedure measured after 72 hr; format: functional
Galendromus occidentalis [27] = assay: Ovicidal activity against Metaseiulus occidentalis eggs in bean leaf disk infested with two-spotted spider mites assessed as corrected cumulative mortality at 240 g/L SC formulation treated using worst-case laboratory exposure procedure measured after 144 hr (reference value: 0.7%); format: functional
Galendromus occidentalis [28] = assay: Toxicity against Metaseiulus occidentalis adults in bean leaf disk infested with two-spotted spider mites assessed as repellency at 0.3767 g AI/L treated using worst-case laboratory exposure procedure measured after 48 hr (reference value: 13.6%); format: functional
Galendromus occidentalis [29] = assay: Toxicity against Metaseiulus occidentalis adults in bean leaf disk infested with two-spotted spider mites assessed as repellency at 0.3767 g AI/L treated using worst-case laboratory exposure procedure measured after 24 hr (reference value: 3.6%); format: functional
Galendromus occidentalis [30] = assay: Toxicity against Metaseiulus occidentalis adults in bean leaf disk infested with two-spotted spider mites assessed as repellency at 0.3767 g AI/L treated using worst-case laboratory exposure procedure measured after 72 hr (reference value: 16.1%); format: functional
Galendromus occidentalis [31] = assay: Toxicity against Metaseiulus occidentalis adults in bean leaf disk infested with two-spotted spider mites assessed as average number of eggs laid (fecundity) at 0.3767 g AI/L treated using worst-case laboratory exposure procedure measured after 72 hr (reference value: 2.23/day); format: functional
Galendromus occidentalis [32] = assay: Toxicity against Metaseiulus occidentalis adults in bean leaf disk infested with two-spotted spider mites assessed as corrected mortality at 0.3767 g AI/L treated using worst-case laboratory exposure procedure measured after 72 hr; format: functional
Galendromus occidentalis [33] = assay: Toxicity against Metaseiulus occidentalis adults in bean leaf disk infested with two-spotted spider mites assessed as average number of eggs laid (fecundity) at 0.3767 g AI/L treated using worst-case laboratory exposure procedure measured after 48 hr (reference value: 2.30/day); format: functional
Galendromus occidentalis [34] = assay: Toxicity against Metaseiulus occidentalis adults in bean leaf disk infested with two-spotted spider mites assessed as average number of eggs laid (fecundity) at 0.3767 g AI/L treated using worst-case laboratory exposure procedure measured after 24 hr (reference value: 2.11/day); format: functional

`C/C(=N\C#N)N(C)Cc1ccc(Cl)nc1` [ACETAMIPRID] showed a Repellency (Galendromus occidentalis [1]) of 50%, a Repellency (Galendromus occidentalis [2]) of 41% and a Repellency (Galendromus occidentalis [3]) of 16%. It also gave an Activity (Galendromus occidentalis [4]) of 0 day⁻¹, a mortality (Galendromus occidentalis [5]) of 63.7% and a mortality (Galendromus occidentalis [6]) of 64.2%. For the same compound, the Activity (Galendromus occidentalis [7]) was 0.13 day⁻¹, the Activity (Galendromus occidentalis [8]) was 1.3 day⁻¹ and the mortality (Galendromus occidentalis [9]) was 2.4%. It also gave a mortality (Galendromus occidentalis [10]) of 42.4%, a mortality (Galendromus occidentalis [11]) of 56.9% and a mortality (Galendromus occidentalis [12]) of 83.1%. The LC50 (Galendromus occidentalis [13]) was 0.021 gAi/L and the mortality (Galendromus occidentalis [14]) was 2%.
`O=[N+]([O-])/N=C1\NCCN1Cc1ccc(Cl)nc1` [IMIDACLOPRID] was tested, and the mortality (Amblyseius andersoni) was 35.6%, the Repellency (Galendromus occidentalis [15]) was 53.8% and the Repellency (Galendromus occidentalis [16]) was 51.9%. The mortality (Galendromus occidentalis [17]) was 100%, the mortality (Neoseiulus fallacis) was 100% and the Repellency (Galendromus occidentalis [18]) was 16%. It also gave an Activity (Galendromus occidentalis [19]) of 1.3 day⁻¹, a mortality (Galendromus occidentalis [20]) of 59.4% and a mortality (Galendromus occidentalis [21]) of 84.2%. For the same compound, the mortality (Galendromus occidentalis [22]) was 97.4%, the Activity (Galendromus occidentalis [23]) was 1.54 day⁻¹ and the Activity (Galendromus occidentalis [24]) was 2.05 day⁻¹. The mortality (Galendromus occidentalis [25]) was 16.8%, the mortality (Galendromus occidentalis [26]) was 34.4% and the LC50 (Galendromus occidentalis [13]) was 0.0156 gAi/L. The mortality at 240000 µg/mL (stock) (Galendromus occidentalis [27]) was 2.7%.
For `COc1cccc(C(=O)NN(C(=O)c2cc(C)cc(C)c2)C(C)(C)C)c1C` [METHOXYFENOZIDE], the Repellency (Galendromus occidentalis [28]) was 5.8%, the Repellency (Galendromus occidentalis [29]) was 3.8% and the Repellency (Galendromus occidentalis [30]) was 9%. The Activity (Galendromus occidentalis [31]) was 2.38 day⁻¹, the mortality (Galendromus occidentalis [32]) was 1.3% and the Activity (Galendromus occidentalis [33]) was 2.15 day⁻¹. For the same compound, the Activity (Galendromus occidentalis [34]) was 1.93 day⁻¹ and the mortality at 240000 µg/mL (stock) (Galendromus occidentalis [27]) was 3.1%.
